Consider 23 compounds from US20260028340A1 (Supernus Pharmaceuticals, Inc., priority 2023, published 2026).

The first data set in a line: Pharmacokinetic data in CD-1 mice after oral administration. It is filed as in vivo. To be noted: 10 mg/kg molar equivalent to Cmpd. A (nominal), serum, analyte: A. On the procedure:
Pharmacokinetic (PK) data was generated using twelve CD-1 mice treated with oral administration of the compound with a dose volume of 10 mg/kg (a molar equivalent to 5-(4-chlorophenyl)-2,3-dihydroimidazo[1,2-b]isoindol-5-ol (“Compound A,” “Cmpd. A,” or “A”)), and a nominal strength of 1 mg/mL. The serum was analyzed in triplicate with 200 mM K2EDTA anticoagulant.
Turning to `O=C(c1ccc(Cl)cc1)c1ccccc1C1=NCCN1C(=O)c1ccc2c(c1)OCO2` [II-4, benzo[d][1.3]dioxol-5-yl(2-(2-(4-chlorobenzoyl)phenyl)-4,5-dihydro-1H-imidazol-1-yl) methanone], the “PK parameters / level of analyte A (Cmpd. A) after dosing the derivative” value (“PK parameters / level” for short) is “NC (BLQ at all the time points)”.

In the case of `CC(C)(C(=O)N1CCN=C1c1ccccc1C(=O)c1ccc(Cl)cc1)C(=O)N1CCN=C1c1ccccc1C(=O)c1ccc(Cl)cc1` [III-1, 1,3-bis(2-(2-(4-chlorobenzoyl)phenyl)-4,5-dihydro-1H-imidazol-1-yl)-2,2-dimethylpropane-1,3-dione], the “PK parameters / level” value is on record as “NC (BLQ at all the time points)”.

For `CC(C)C(NC(=O)OC(C)(C)C)C(=O)N1CCN=C1c1ccccc1C(=O)c1ccc(Cl)cc1` (centres unmarked), the “PK parameters / level” value is listed as “NC (BLQ at all the time points)”.

The same data set, now with this note: mouse, 10 mg/kg molar equivalent to Cmpd. A (nominal), serum, analyte: dosed derivative (DV).
As a reminder, the AUC(0-inf) is total exposure, with the tail of the curve extrapolated. Usually AUC(0-t) stands for exposure summed from dosing to a finite time, without extrapolation to infinity. One may read the Cmax as the peak of the concentration-time curve. The Tmax is the time from dosing to the highest level. As a reminder, the half-life is the time needed for the level to fall by half in the phase considered. With `CCOC1(c2ccc(Cl)cc2)c2ccccc2C2=NCCN21` (centres unmarked) [Compound I-8, 5-(4-chlorophenyl)-5-ethoxy-2,5-dihydro-3H-imidazo[2,1-a]isoindole], the AUC(0-inf) stood at 72.4 ng·h/mL, the AUC(0-t) was 48.5 ng·h/mL, the Cmax turned out to be 32 ng/mL and the Tmax was found to be 30 min. Besides, the half-life is 127 min.

Regarding `Cc1ccc(C(=O)N2CCN=C2c2ccccc2C(=O)c2ccc(Cl)cc2)cc1` [II-3, (2-(2-(4-chlorobenzoyl)phenyl)-4,5-dihydro-1H-imidazol-1-yl) (p-tolyl) methanone], the AUC(0-inf) came out at 182 ng·h/mL, the exposure AUC(0-t) is 163 ng·h/mL, the Cmax was found to be 81.6 ng/mL and the Tmax turned out to be 15 min. Moreover, the half-life is 132 min.

For `COC1(c2ccc(Cl)cc2)c2ccccc2C2=NCCN21` (centres unmarked) [Compound I-6, 5-(4-chlorophenyl)-5-methoxy-2,5-dihydro-3H-imidazo[2,1-a]isoindole], the AUC(0-inf) amounted to 66.6 ng·h/mL, the AUC(0-t) is 64.7 ng·h/mL, the Cmax stood at 72 ng/mL and the time to peak (Tmax) turned out to be 30 min. In addition, the half-life is 51 min.

For the compound `C=CCOC1(c2ccc(Cl)cc2)c2ccccc2C2=NCCN21` (centres unmarked) [Compound I-3, 5-(allyloxy)-5-(4-chlorophenyl)-2,5-dihydro-3H-imidazo[2,1-a]isoindole], the AUC(0-inf) is 88.9 ng·h/mL, the AUC(0-t) came to 73.7 ng·h/mL, the Cmax was found to be 52.9 ng/mL and the Tmax is 30 min. Moreover, the half-life was 102 min.

Take `Clc1ccc(C2(OCc3ccc4c(c3)OCO4)c3ccccc3C3=NCCN32)cc1` (centres unmarked) [Compound I-7, 5-(benzo[d][1.3]dioxol-5-ylmethoxy)-5-(4-chlorophenyl)-2,5-dihydro-3H-imidazo[2,1-a]isoindole]: the AUC(0-inf) was 358 ng·h/mL, the AUC(0-t) was 307 ng·h/mL, the Cmax was found to be 211 ng/mL and the Tmax is 15 min. The half-life is 85.2 min.

Regarding `CC(C)=CCC/C(C)=C/COC1(c2ccc(Cl)cc2)c2ccccc2C2=NCCN21` (centres unmarked) [Compound I-11, (E)-5-(4-chlorophenyl)-5-((3,7-dimethylocta-2,6-dien-1-yl)oxy)-2,5-dihydro-3H-imidazo[2,1-a]isoindole], the AUC(0-inf) was 44 ng·h/mL, the AUC(0-t) is 39.7 ng·h/mL, the Cmax came out at 27.7 ng/mL and the Tmax worked out at 15 min. The half-life is 69.6 min.

For the compound `CN1CCN(C(=O)N2CCN=C2c2ccccc2C(=O)c2ccc(Cl)cc2)CC1` [II-6, (2-(2-(4-chlorobenzoyl)phenyl)-4,5-dihydro-1H-imidazol-1-yl) (4-methylpiperazin-1-yl) methanone], the AUC(0-inf) turned out to be 548 ng·h/mL, the AUC(0-t) came to 531 ng·h/mL, the highest concentration (Cmax) is 752 ng/mL and the Tmax amounted to 15 min. Besides, the half-life was 51 min.

On to `COc1ccc(C(=O)N2CCN=C2c2ccccc2C(=O)c2ccc(Cl)cc2)cc1` [II-2, (2-(2-(4-chlorobenzoyl)phenyl)-4,5-dihydro-1H-imidazol-1-yl) (4-methoxyphenyl) methanone], for which the AUC(0-inf) came out at 624 ng·h/mL, the AUC(0-t) came to 611 ng·h/mL, the Cmax is 170 ng/mL and the Tmax amounted to 30 min. The half-life is 81.6 min.

For `CC(C)=CCOC1(c2ccc(Cl)cc2)c2ccccc2C2=NCCN21` (centres unmarked) [Compound I-9, 5-(4-chlorophenyl)-5-((3-methylbut-2-en-1-yl)oxy)-2,5-dihydro-3H-imidazo[2,1-a]isoindole], the AUC(0-inf) came out at 59.8 ng·h/mL, the AUC(0-t) is 55.1 ng·h/mL, the Cmax was 124 ng/mL and the Tmax is 15 min. For the same compound, the half-life is 85.2 min.

Take `COc1ccc(COC2(c3ccc(Cl)cc3)c3ccccc3C3=NCCN32)cc1` (centres unmarked) [Compound I-2, 5-(4-chlorophenyl)-5-((4-methoxybenzyl)oxy)-2,5-dihydro-3H-imidazo[2,1-a]isoindole]: the AUC(0-inf) is 268 ng·h/mL, the AUC(0-t) came out at 260 ng·h/mL, the Cmax stood at 234 ng/mL and the Tmax came to 15 min. In addition, the half-life is 108 min.

Regarding `CC(C)COC1(c2ccc(Cl)cc2)c2ccccc2C2=NCCN21` (centres unmarked) [Compound I-10, 5-(4-chlorophenyl)-5-isobutoxy-2,5-dihydro-3H-imidazo[2,1-a]isoindole], the AUC(0-inf) was 112 ng·h/mL, the AUC(0-t) came to 94.6 ng·h/mL, the maximum concentration (Cmax) was 82.5 ng/mL and the Tmax was 15 min. Further, the half-life is 97.8 min.

With `O=C(c1ccc(Cl)cc1)c1ccccc1C1=NCCN1C(=O)c1ccc2c(c1)OCO2` [II-4, benzo[d][1.3]dioxol-5-yl(2-(2-(4-chlorobenzoyl)phenyl)-4,5-dihydro-1H-imidazol-1-yl) methanone], the AUC(0-inf) worked out at 238 ng·h/mL, the AUC(0-t) came to 236 ng·h/mL, the Cmax amounted to 50.3 ng/mL and the Tmax is 15 min. Further, the half-life was 72 min.

`COCCOC1(c2ccc(Cl)cc2)c2ccccc2C2=NCCN21` (centres unmarked) [Compound I-4, 5-(4-chlorophenyl)-5-(2-methoxyethoxy)-2,5-dihydro-3H-imidazo[2,1-a]isoindole]: the AUC(0-inf) stood at 586 ng·h/mL, the AUC(0-t) amounted to 568 ng·h/mL, the Cmax was found to be 475 ng/mL and the Tmax was 15 min. Also, the half-life is 108 min.

As for `CC(C)(C(=O)N1CCN=C1c1ccccc1C(=O)c1ccc(Cl)cc1)C(=O)N1CCN=C1c1ccccc1C(=O)c1ccc(Cl)cc1` [III-1, 1,3-bis(2-(2-(4-chlorobenzoyl)phenyl)-4,5-dihydro-1H-imidazol-1-yl)-2,2-dimethylpropane-1,3-dione], the AUC(0-inf) was 369 ng·h/mL, the AUC(0-t) was determined as 366 ng·h/mL, the maximum concentration (Cmax) amounted to 238 ng/mL and the Tmax was 15 min. Moreover, the half-life was 72 min.

On to `CC(C)C(NC(=O)OC(C)(C)C)C(=O)N1CCN=C1c1ccccc1C(=O)c1ccc(Cl)cc1` (centres unmarked), for which the AUC(0-t) came to 56.5 ng·h/mL, the Cmax was 61.2 ng/mL and the Tmax came to 15 min.

As for `Clc1ccc(C2(OCc3ccccc3)c3ccccc3C3=NCCN32)cc1` (centres unmarked) [Compound I-1, 5-(benzyloxy)-5-(4-chlorophenyl)-2,5-dihydro-3H-imidazo[2,1-a]isoindole], the AUC(0-inf) stood at 141 ng·h/mL, the area under the curve AUC(0-t) is 137 ng·h/mL, the Cmax was 68.2 ng/mL and the Tmax is 15 min. Moreover, the half-life is 96 min.

Consider `CC(C)=CCC/C(C)=C/CC/C(C)=C/COC1(c2ccc(Cl)cc2)c2ccccc2C2=NCCN21` (centres unmarked) [Compound I-13, 5-(4-chlorophenyl)-5-(((2E,6E)-3,7,11-trimethyldodeca-2,6,10-trien-1-yl)oxy)-2,5-dihydro-3H-imidazo[2,1-a]isoindole], for which the exposure AUC(0-t) stood at 337 ng·h/mL, the Cmax amounted to 201 ng/mL and the Tmax worked out at 30 min.

Take `COCCOCCOCCOC1(c2ccc(Cl)cc2)c2ccccc2C2=NCCN21` (centres unmarked) [Compound I-12, 5-(4-chlorophenyl)-5-(2-(2-(2-methoxyethoxy)ethoxy)ethoxy)-2,5-dihydro-3H-imidazo[2,1-a]isoindole]: the AUC(0-t) was 68.9 ng·h/mL, the Cmax worked out at 67.6 ng/mL and the Tmax was 30 min.

For `O=C(c1ccc(Cl)cc1)c1ccccc1C1=NCCN1C(=O)c1ccccc1` [II-1, (2-(1-benzoyl-4,5-dihydro-1H-imidazol-2-yl)phenyl) (4-chlorophenyl) methanone], the AUC(0-inf) was 21.8 ng·h/mL, the AUC(0-t) stood at 19.8 ng·h/mL, the Cmax was 43 ng/mL and the Tmax was 15 min. For the same compound, the half-life is 100 min.

Assay in a further data set: as above
It is filed as in vivo. To be noted: mouse, serum, Table 7: CD-1 mice, nominal dose 5.10 mg/kg Cmpd. A or 6.57-8.40 mg/kg DV salt, analyte: dosed derivative (DV).
Turning to `FC(F)(F)c1ccc(/C=C/COC2(c3ccc(Cl)cc3)c3ccccc3C3=NCCN32)cc1` (centres unmarked) [Compound I-18, (E)-5-(4-chlorophenyl)-5-((3-(4-(trifluoromethyl)phenyl)allyl)oxy)-2,5-dihydro-3H-imidazo[2,1-a]isoindole], the AUC(0-inf) came to 792 ng·h/mL, the AUC(0-t) amounted to 677 ng·h/mL, the Cmax came out at 187 ng/mL and the Tmax came to 30 min. The half-life is 237 min.

Turning to `Clc1ccc(C2(OCC3OCCO3)c3ccccc3C3=NCCN32)cc1` (centres unmarked) [Compound I-19, 5-((1,3-dioxolan-2-yl)methoxy)-5-(4-chlorophenyl)-2,5-dihydro-3H-imidazo[2,1-a]isoindole], the AUC(0-t) amounted to 2.04 ng·h/mL, the Cmax came to 4.27 ng/mL and the Tmax came to 20 min.

With `FC(F)(F)c1ccc(COC2(c3ccc(Cl)cc3)c3ccccc3C3=NCCN32)cc1` (centres unmarked) [Compound I-14, 5-(4-chlorophenyl)-5-((4-(trifluoromethyl)benzyl)oxy)-2,5-dihydro-3H-imidazo[2,1-a]isoindole], the AUC(0-inf) was determined as 215 ng·h/mL, the AUC(0-t) is 183 ng·h/mL, the Cmax stood at 56.1 ng/mL and the Tmax was 30 min. Besides, the half-life was 163 min.

`COc1ccc(COC2(c3ccc(Cl)cc3)c3ccccc3C3=NCCN32)cc1OC` (centres unmarked) [Compound I-15, 5-(4-chlorophenyl)-5-((3,4-dimethoxybenzyl)oxy)-2,5-dihydro-3H-imidazo[2,1-a]isoindole]: the AUC(0-inf) was 16 ng·h/mL, the AUC(0-t) was 12.7 ng·h/mL, the Cmax stood at 17.8 ng/mL and the Tmax is 20 min. Also, the half-life was 29.8 min.
